For this test, the target named is T1, human ferroportin (Homo sapiens, UniProt Q9NP59).
T1 construct: expressed in transfected cells; host or cells: CHO cells, stably transfected, doxycycline-inducible
T1 sequence (Q9NP59 1-571): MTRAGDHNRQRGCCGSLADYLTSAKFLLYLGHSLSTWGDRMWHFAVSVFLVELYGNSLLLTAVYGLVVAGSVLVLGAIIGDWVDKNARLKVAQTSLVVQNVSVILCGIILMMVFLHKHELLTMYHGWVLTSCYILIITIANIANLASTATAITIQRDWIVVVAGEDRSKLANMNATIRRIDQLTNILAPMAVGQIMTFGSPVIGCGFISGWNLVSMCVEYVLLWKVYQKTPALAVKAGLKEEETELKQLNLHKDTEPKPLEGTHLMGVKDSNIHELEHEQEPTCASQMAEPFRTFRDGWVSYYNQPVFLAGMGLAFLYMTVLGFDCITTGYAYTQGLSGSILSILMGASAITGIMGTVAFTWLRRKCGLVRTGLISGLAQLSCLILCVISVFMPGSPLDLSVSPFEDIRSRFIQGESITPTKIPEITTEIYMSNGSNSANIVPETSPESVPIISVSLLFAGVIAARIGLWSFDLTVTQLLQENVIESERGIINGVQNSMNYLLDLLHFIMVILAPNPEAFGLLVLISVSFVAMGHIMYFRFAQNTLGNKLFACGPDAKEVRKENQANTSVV
The experiment in a line: In-vitro ferroportin internalization assay (luciferase reporter). The conditions noted are these: average pEC50; stably-transfected CHO cell line expressing human ferroportin tagged to a luciferase reporter; 6 h incubation with test compound; luciferase activity (Nano-Glo). The format is cell-based. Here is the method:
The protocol for this assay is generally as described in WO2018/128828, incorporated herein by reference in its entirety. Functional internalization of ferroportin protein was measured using a stably-transfected CHO cell line expressing the human ferroportin tagged to a luciferase reporter. Cells were plated for 24 h in the presence of ferric ammonium citrate (FAC). Ferroportin protein expression was induced with doxycycline for 24 h. The next day, the compounds were added. Test compounds were dissolved in DMSO. Cells were incubated with the test compounds for 6 h, and subsequently luciferase activity was measured using the Nano-Glo Luciferase Assay System and Glomax (Promega, Madison, WI).
The average pEC50 was determined for the test compounds.
On the technique in general: Reporter assays use an easily measured gene product as a stand-in for the process of interest.
Consider `Cc1sc2nc(-c3cc(OCCN(C)C)ccn3)nc(N(C)CC(=O)NC3(C(F)(F)F)CC3)c2c1C` [Compound 22, 2-[(2-{4-[2-(dimethylamino)ethoxy]pyridin-2-yl}-5,6-dimethylthieno[2,3-d]pyrimidin-4-yl)(methyl)amino]-N-[1-(trifluoromethyl)cyclopropyl]acetamide], for which the negative-log EC50 (pEC50) – broadly, the EC50 on a negative log10 scale, so that one unit is a factor of ten – worked out at 7.5.

As to `COc1ccc(NC(=O)CN(C)c2nc(-c3cc(OCCO)ccn3)nc3sc(C)c(C)c23)cn1` [Compound 11, 2-([2-[4-(2-hydroxyethoxy)pyridin-2-yl]-5,6-dimethylthieno[2,3-d]pyrimidin-4-yl](methyl)amino)-N-(6-methoxypyridin-3-yl)acetamide], the negative-log EC50 (pEC50) is 7.5.

Compound `Cc1ccc(NC(=O)CN(C)c2nc(-c3cn(C)cn3)nc3sc(C)c(C)c23)cn1` [Compound 12, 2-{[5,6-dimethyl-2-(1-methyl-1H-imidazol-4-yl)thieno[2,3-d]pyrimidin-4-yl](methyl)amino}-N-(6-methylpyridin-3-yl)acetamide] showed a pEC50 of 7.1.

In the case of `Cc1ccc(NC(=O)CN(C)c2nc(-c3cc(OCCO)ccn3)nc3sc(C)c(C)c23)cn1` [Compound 10, 2-({2-[4-(2-hydroxyethoxy)pyridin-2-yl]-5,6-dimethylthieno[2,3-d]pyrimidin-4-yl}(methyl)amino)-N-(6-methylpyridin-3-yl)acetamide], the pEC50 came to 7.6.

Turning to `COc1ccc(NC(=O)CN(C)c2nc(-c3cn(C)cn3)nc3sc(C)c(C)c23)cn1` [Compound 13, 2-{[5,6-dimethyl-2-(1-methyl-1H-imidazol-4-yl)thieno[2,3-d]pyrimidin-4-yl](methyl)amino}-N-(6-methoxypyridin-3-yl)acetamide], the pEC50 is 7.1.

With `Cc1sc2nc(-c3cc(OCCn4ccnc4)ccn3)nc(N(C)CC(=O)NC(C)(C)C)c2c1C` [Compound 24, N-tert-butyl-2-[(2-{4-[2-(1H-imidazol-1-yl)ethoxy]pyridin-2-yl}-5,6-dimethylthieno[2,3-d]pyrimidin-4-yl)(methyl)amino]acetamide], the pEC50 turned out to be 8.

`COc1ccnc(-c2nc(N(C)CC(=O)Nc3ccc(OC)nc3)c3ccsc3n2)c1` [Compound 7, 2-{[2-(4-methoxypyridin-2-yl)thieno[2,3-d]pyrimidin-4-yl](methyl)amino}-N-(6-methoxypyridin-3-yl)acetamide] returned a pEC50 of 6.6.

For the compound `Cc1sc2nc(-c3cc(OCCN(C)C)ccn3)nc(N(C)CC(=O)NC(C)(C)C)c2c1C` [Compound 18, N-tert-butyl-2-[(2-{4-[2-(dimethylamino)ethoxy]pyridin-2-yl}-5,6-dimethylthieno[2,3-d]pyrimidin-4-yl)(methyl)amino]acetamide], the pEC50 is given as 7.8.

For the compound `Cc1sc2nc(-c3cc(O[C@@H]4CCN(C)C4)ccn3)nc(N(C)CC(=O)NC(C)(C)C)c2c1C` [Compound 19, N-tert-butyl-2-{[5,6-dimethyl-2-(4-{[(3R)-1-methylpyrrolidin-3-yl]oxy}pyridin-2-yl)thieno[2,3-d]pyrimidin-4-yl](methyl)amino}acetamide], the pEC50 worked out at 7.6.

Compound `COc1ccc(NC(=O)CN(C)c2nc(-c3cc(OCCO)ccn3)nc3scc(C)c23)cn1` [Compound 17, 2-({2-[4-(2-hydroxyethoxy)pyridin-2-yl]-5-methylthieno[2,3-d]pyrimidin-4-yl}(methyl)amino)-N-(6-methoxypyridin-3-yl)acetamide] yielded a pEC50 of 7.7.

As to `Cc1sc2nc(-c3cc(OCCN4C[C@@H]5C[C@H]4CO5)ccn3)nc(N(C)CC(=O)NC(C)(C)C)c2c1C` [Compound 23, N-tert-butyl-2-{[5,6-dimethyl-2-(4-{2-[(1S,4S)-2-oxa-5-azabicyclo[2.2.1]heptan-5-yl]ethoxy}pyridin-2-yl)thieno[2,3-d]pyrimidin-4-yl](methyl)amino}acetamide], the pEC50 came to 8.2.

For `COc1cccc(NC(=O)CN(C)c2nc(-c3cc(OCCO)ccn3)nc3sc(C)c(C)c23)c1` [Compound 8, 2-({2-[4-(2-hydroxyethoxy)pyridin-2-yl]-5,6-dimethylthieno[2,3-d]pyrimidin-4-yl}(methyl)amino)-N-(3-methoxyphenyl)acetamide], the pEC50 stood at 7.8.

For `Cc1sc2nc(-c3cc(OCCO)ccn3)nc(N(C)CC(=O)NC(C)(C)C)c2c1C` [Compound 15, N-tert-butyl-2-({2-[4-(2-hydroxyethoxy)pyridin-2-yl]-5,6-dimethylthieno[2,3-d]pyrimidin-4-yl}(methyl)amino)acetamide], the pEC50 stood at 7.8.

For `Cc1sc2nc(-c3cc(OCCN4CCOCC4)ccn3)nc(N(C)CC(=O)NC(C)(C)C)c2c1C` [Compound 20, N-tert-butyl-2-[(5,6-dimethyl-2-{4-[2-(morpholin-4-yl)ethoxy]pyridin-2-yl}thieno[2,3-d]pyrimidin-4-yl)(methyl)amino]acetamide], the pEC50 was determined as 8.

Compound `Cc1sc2nc(-c3cc(OCCO)ccn3)nc(N(C)CC(=O)Nc3cccc(F)c3)c2c1C` [Compound 9, N-(3-fluorophenyl)-2-({2-[4-(2-hydroxyethoxy)pyridin-2-yl]-5,6-dimethylthieno[2,3-d]pyrimidin-4-yl}(methyl)amino)acetamide] came in with a negative logarithm of the EC50 (pEC50) of 7.7.

For the compound `Cc1sc2nc(-c3cn(C)cn3)nc(N(C)CC(=O)NC(C)(C)C)c2c1C` [Compound 14, N-tert-butyl-2-{[5,6-dimethyl-2-(1-methyl-1H-imidazol-4-yl)thieno[2,3-d]pyrimidin-4-yl](methyl)amino}acetamide], the pEC50 is on record as 7.

`Cc1sc2nc(-c3cc(OCCN4CCN(C)CC4)ccn3)nc(N(C)CC(=O)NC(C)(C)C)c2c1C` [Compound 21, N-tert-butyl-2-[(5,6-dimethyl-2-{4-[2-(4-methylpiperazin-1-yl)ethoxy]pyridin-2-yl}thieno[2,3-d]pyrimidin-4-yl)(methyl)amino]acetamide] yielded a pEC50 of 7.8.

Compound `COc1ccc(NC(=O)CN(C)c2nc(-c3cc(OCCO)ccn3)nc3sc(C)cc23)cn1` [Compound 16, 2-({2-[4-(2-hydroxyethoxy)pyridin-2-yl]-6-methylthieno[2,3-d]pyrimidin-4-yl}(methyl)amino)-N-(6-methoxypyridin-3-yl)acetamide] came in with a pEC50 of 7.6.

(Values after patent US12559502B2, “Thieno pyrimidines as ferroportin inhibitors” (Global Blood Therapeutics, Inc., priority 2020, dated 2026).)
